Results from ChEMBL document CHEMBL6078646, “Target Ligand Separation and Identification of Isoforsythiaside as a Histone Lysine-Specific Demethylase 1 Covalent Inhibitor Against Breast Cancer Metastasis” (J Med Chem, 2024).
pIC50: −log10 of the molar value. Activity calls are given as the source filed them. The calls are words filed in the database; no cut-off is given here.

What was measured:
[1] = target: T1, Lysine-specific histone demethylase 1A (Homo sapiens, UniProt O60341); test: Inhibition of recombinant His-tagged LSD1 (157 to 852 residues) (unknown origin) expressed in Escherichia coli BL21 (DE3) cells using H3K4me2 peptide as substrate incubated for 30 mins by fluorescence microplate reader analysis
[2] = Half-life in male Sprague-Dawley rat at 10 mg/kg, ip measured at 0 to 1440 mins by LC-MS/MS analysis; type: ADME, organism-based; details: in vivo, time 0-1440 min
[3] = Toxicity in female Balb/c mouse assessed as effect on RBC level at 50 mg/kg, ip administered every other day for 7 times; type: organism-based; details: in vivo
[4] = Toxicity in female Balb/c mouse assessed as effect on monocytes level at 50 mg/kg, ip administered every other day for 7 times; type: organism-based; details: in vivo
[5] = Toxicity in female Balb/c mouse assessed as effect on granulocyte level at 50 mg/kg, ip administered every other day for 7 times; type: organism-based; details: in vivo
[6] = Toxicity in female Balb/c mouse assessed as effect on ALT level at 50 mg/kg, ip administered every other day for 7 times; type: organism-based; details: in vivo
[7] = Toxicity in female Balb/c mouse assessed as effect on LDH level at 50 mg/kg, ip administered every other day for 7 times; type: organism-based; details: in vivo
[8] = Toxicity in female Balb/c mouse assessed as effect on creatine kinase level at 50 mg/kg, ip administered every other day for 7 times; type: organism-based; details: in vivo
[9] = Toxicity in female Balb/c mouse assessed as histological changes in heart at 50 mg/kg, ip administered every other day for 7 times by H and E staining based analysis; type: organism-based; details: in vivo
[10] = Toxicity in female Balb/c mouse assessed as histological changes in spleen at 50 mg/kg, ip administered every other day for 7 times by H and E staining based analysis; type: organism-based; details: in vivo
[11] = Toxicity in female Balb/c mouse assessed as histological changes in lung at 50 mg/kg, ip administered every other day for 7 times by H and E staining based analysis; type: organism-based; details: in vivo
[12] = Toxicity in female Balb/c mouse assessed as histological changes in kidney at 50 mg/kg, ip administered every other day for 7 times by H and E staining based analysis; type: organism-based; details: in vivo
MDA-MB-231 [13] = test: Cytotoxicity against human MDA-MB-231 cells assessed as cell viability at 0 to 100 uM incubated for 24 hrs by MTT assay; type: functional; details: dose 0-100 µM
MDA-MB-231 [14] = test: Inhibition of cell invasion in human MDA-MB-231 cells assessed as reduction in number of invasive cells at 4 to 32 uM incubated for 24 hrs by phase contrast microscopy Transwell assay; type: functional, cell-based; details: dose 4-32 µM
MDA-MB-231 [15] = test: Inhibition of epithelial to mesenchymal transition in human MDA-MB-231 cells assessed as upregulation of E-cadherin protein expression by Western blotting analysis; type: functional, cell-based; details: dose 0-32 µM
MDA-MB-231 [16] = test: Inhibition of epithelial to mesenchymal transition in human MDA-MB-231 cells assessed as downregulation of N-cadherin protein expression by Western blotting analysis; type: functional, cell-based; details: dose 0-32 µM
MDA-MB-231 [17] = test: (§1) Antimetastatic activity against human MDA-MB-231 cells expressing luciferase xenografted in female Balb/c nude mouse assessed as reduction in number of metastatic nodules in the lung at 12 mg/kg, ip administered every 3 days and measured after 30 days by H and E staining based histopathological analysis relative to control; type: functional; parameters: scale not given: the % may be the effect or the level left; details: time 30 day
MDA-MB-231 [18] = test: as §1, with “25” for “12”; type: functional; parameters: scale not given: the % may be the effect or the level left; details: time 30 day
[19] = Toxicity in female Balb/c nude mouse xenografted with human MDA-MB-231 cells expressing luciferase assessed as abnormalities spleen at 12 to 50 mg/kg, ip administered every 3 days and measured after 30 days by H and E staining based analysis; type: organism-based; details: in vivo, 720 h, dose 12-50 mg/kg, time 30 day
[20] = Toxicity in female Balb/c nude mouse xenografted with human MDA-MB-231 cells expressing luciferase assessed as abnormalities kidney at 12 to 50 mg/kg, ip administered every 3 days and measured after 30 days by H and E staining based analysis; type: organism-based; details: in vivo, 720 h, dose 12-50 mg/kg, time 30 day
[21] = target: T1, Lysine-specific histone demethylase 1A; test: Inhibition of LSD1 (unknown origin) at 0.32 to 6.40 uM; details: dose 0.32-6.4 µM, time 0-25 min
[22] = target: T1, Lysine-specific histone demethylase 1A; test: Inhibition of LSD1 in human MDA-MB-231 cells assessed as increase in H3K4me1 accumulation by Western blotting analysis; type: cell-based; details: dose 0-32 µM
[23] = target: T1, Lysine-specific histone demethylase 1A; test: Inhibition of LSD1 in human MDA-MB-231 cells assessed as increase in H3K4me2 accumulation by Western blotting analysis; type: cell-based; details: dose 0-32 µM
MDA-MB-231 [24] = test: Effect on H3K4me2 protein expression in LSD1 knockout human MDA-MB-231 cells at 16 uM by Western blot analysis; type: functional, cell-based
MDA-MB-231 [25] = test: Effect on CD86 protein expression in LSD1 knockout human MDA-MB-231 cells at 16 uM by Western blot analysis; type: functional, cell-based
MDA-MB-231 [26] = test: Inhibition of cell migration in LSD1 knockout human MDA-MB-231 cells at 16 uM incubated for 24 hrs by phase-contrast microscopy based wound healing assay; type: functional
Homo sapiens = species: Homo sapiens; test: Binding affinity to recombinant LSD1 Ser817A mutant (unknown origin) by MST assay
MDA-MB-231 [27] = test: Inhibition of MMP2 production in human MDA-MB-231 cells by Western blotting analysis; type: functional, cell-based; details: dose 0-32 µM
MDA-MB-231 [28] = test: Upregulation of RBMS3 mRNA level in human MDA-MB-231 cells by qRT-PCR analysis; type: functional, cell-based; details: dose 4-32 µM
[29] = Toxicity in female Balb/c nude mouse xenografted with human MDA-MB-231 cells expressing luciferase assessed as appearance of heart lesions at 12 to 50 mg/kg, ip administered every 3 days and measured after 30 days by H and E staining based analysis; type: organism-based; details: in vivo, 720 h, dose 12-50 mg/kg, time 30 day
[30] = Toxicity in female Balb/c nude mouse xenografted with human MDA-MB-231 cells expressing luciferase assessed as appearance of liver lesions at 12 to 50 mg/kg, ip administered every 3 days and measured after 30 days by H and E staining based analysis; type: organism-based; details: in vivo, 720 h, dose 12-50 mg/kg, time 30 day
[31] = Toxicity in female Balb/c nude mouse xenografted with human MDA-MB-231 cells expressing luciferase assessed as appearance of spleen lesions at 12 to 50 mg/kg, ip administered every 3 days and measured after 30 days by H and E staining based analysis; type: organism-based; details: in vivo, 720 h, dose 12-50 mg/kg, time 30 day
[32] = Toxicity in female Balb/c nude mouse xenografted with human MDA-MB-231 cells expressing luciferase assessed as appearance of kidney lesions at 12 to 50 mg/kg, ip administered every 3 days and measured after 30 days by H and E staining based analysis; type: organism-based; details: in vivo, 720 h, dose 12-50 mg/kg, time 30 day
[33] = target: T1, Lysine-specific histone demethylase 1A; test: Inhibition of LSD1 (unknown origin) activity measured after 80-fold dilution by dilution assay
[34] = target: T1, Lysine-specific histone demethylase 1A; test: Non-competitive inhibition of LSD1 (unknown origin) in presence of FAD by Lineweaver-Burk plot analysis
MDA-MB-231 [35] = test: Effect on LSD1 protein expression in human MDA-MB-231 cells at 4 to 32 uM by Western blot analysis; type: functional, cell-based; details: dose 4-32 µM
MDA-MB-231 [36] = test: Induction of LSD1 degradation in human MDA-MB-231 cells at 4 to 32 uM in presence of MG132 by Western blot analysis; type: cell-based; details: dose 4-32 µM

Q: With C[C@@H]1O[C@H](OC[C@H]2O[C@@H](OCCc3ccc(O)c(O)c3)[C@H](O)[C@@H](OC(=O)/C=C/c3ccc(O)c(O)c3)[C@@H]2O)[C@H](O)[C@H](O)[C@H]1O as the compound, how does the pIC50 [1] read?
A: The pIC50 was 5.80.

Q: And the half-life [2]?
A: Its half-life is 34.8 min.

Q: What about the Activity [3] of the same compound?
A: Its Activity is “Non-toxic”.

Q: And the Activity [4]?
A: The Activity was “Non-toxic”.

Q: And the Activity [5]?
A: Its Activity is “Non-toxic”.

Q: What about the Activity [6] of the same compound?
A: Its Activity is “Non-toxic”.

Q: And the Activity [7]?
A: The Activity was “Non-toxic”.

Q: And the Activity [8]?
A: Its Activity is “Non-toxic”.

Q: What about the Activity [9] of the same compound?
A: The Activity was “Non-toxic”.

Q: And the Activity [10]?
A: The Activity was “Non-toxic”.

Q: And the Activity [11]?
A: Its Activity is “Non-toxic”.

Q: And the Activity [12]?
A: Its Activity is “Non-toxic”.

Q: What about the Activity (MDA-MB-231 [13]) of the same compound?
A: Its Activity is greater than 90%.

Q: And the inhibition (MDA-MB-231 [14])?
A: The inhibition was “Active”.

Q: What about the inhibition (MDA-MB-231 [15]) of the same compound?
A: Its inhibition is “Dose-dependent-effect”.

Q: What about the inhibition (MDA-MB-231 [16]) of the same compound?
A: Its inhibition is “Dose-dependent-effect”.

Q: What about the Activity (MDA-MB-231 [17]) of the same compound?
A: Its Activity is 7.1%.

Q: And the Activity (MDA-MB-231 [18])?
A: Its Activity is 33.3%.

Q: And the Activity [19]?
A: The Activity was “Non-toxic”.

Q: And the Activity [20]?
A: The Activity was “Non-toxic”.

Q: And the inhibition [21]?
A: The inhibition was “Time-dependent-effect”.

Q: What about the inhibition [22] of the same compound?
A: Its inhibition is “Dose-dependent-effect”.

Q: And the inhibition [23]?
A: Its inhibition is “Dose-dependent-effect”.

Q: And the Activity (MDA-MB-231 [24])?
A: Its Activity is “inactive”.

Q: And the Activity (MDA-MB-231 [25])?
A: The Activity was “inactive”.

Q: And the inhibition (MDA-MB-231 [26])?
A: The inhibition was “Active; No Significant Difference With Lsd1 Knockout Control Group”.

Q: What about the Activity (Homo sapiens) of the same compound?
A: The Activity was “inactive”.

Q: And the inhibition (MDA-MB-231 [27])?
A: Its inhibition is “Dose-dependent-effect”.

Q: And the Activity (MDA-MB-231 [28])?
A: Its Activity is “Dose-dependent-effect”.

Q: What about the Activity [29] of the same compound?
A: Its Activity is “Non-toxic”.

Q: What about the Activity [30] of the same compound?
A: The Activity was “Non-toxic”.

Q: And the Activity [31]?
A: The Activity was “Non-toxic”.

Q: And the Activity [32]?
A: The Activity was “Non-toxic”.

Q: And the inhibition [33]?
A: The inhibition was “Active; Compound Exerts Inhibition In An Irreversible Manner”.

Q: And the inhibition [34]?
A: The inhibition was “Active”.

Q: And the Activity (MDA-MB-231 [35])?
A: The Activity was “inactive”.

Q: And the Activity (MDA-MB-231 [36])?
A: Its Activity is “inactive”.
